Tests used:
GCGR [1] = biological target: GCGR (Homo sapiens, UniProt P47871, Q131A); assay: Whole-cell binding assay, competition with 125I-GCG; design: V5 (C); 6×His (C); expressed in transfected cells; host or cells: CHO-K1; details: GCGR Q131A, CHO-K1
Procedure, shortened: (§1)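 CHO-K1 cells transiently transfected with WT or mutant receptor constructs, washed in F-12 with 0.1% BSA or casein/33 mM HEPES and incubated 2 h at 37 °C. Bound radioactivity counted after Triton lysis; data normalized to WT and fitted to a three-parameter logistic equation.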

GCGR [2] = biological target: GCGR (Homo sapiens, UniProt P47871, Q293A); assay: as above; design: V5 (C); 6×His (C); expressed in transfected cells; host or cells: CHO-K1; details: GCGR Q293A, CHO-K1
Procedure, shortened: as §1

GCGR [3] = biological target: GCGR (Homo sapiens, UniProt P47871, W87A); assay: as above; design: V5 (C); 6×His (C); expressed in transfected cells; host or cells: CHO-K1; details: GCGR W87A, CHO-K1
Procedure, shortened: as §1

GCGR [4] = biological target: GCGR (Homo sapiens, UniProt P47871, W215A); assay: as above; design: V5 (C); 6×His (C); expressed in transfected cells; host or cells: CHO-K1; details: GCGR W215A, CHO-K1
Procedure, shortened: as §1

GCGR [5] = biological target: GCGR (Homo sapiens, UniProt P47871, K205A); assay: as above; design: V5 (C); 6×His (C); expressed in transfected cells; host or cells: CHO-K1; details: GCGR K205A, CHO-K1
Procedure, shortened: as §1

GLP-1R [6] = biological target: GLP-1R (Homo sapiens, UniProt P43220, Y205A); assay: cAMP accumulation assay, GLP-1R WT, mutant or modified constructs; type: cell-based; design: Flag; expressed in transfected cells; host or cells: HEK293T; details: GLP-1R Y205A, HEK293T
Procedure, shortened: (§2)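 HEK293T cells transiently expressing wild-type, mutant or modified human GLP-1R (HA signal peptide constructs) were used. Cells were stimulated with peptide agonists for 40 min at room temperature in HBSS with 0.5 mM IBMX and 0.1% BSA or casein. cAMP was quantified by LANCE Ultra TR-FRET (620/650 nm).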

GLP-1R [7] = biological target: GLP-1R (Homo sapiens, UniProt P43220, K202A); assay: as above; type: cell-based; design: Flag; expressed in transfected cells; host or cells: HEK293T; details: GLP-1R K202A, HEK293T
Procedure, shortened: as §2

GLP-1R [8] = biological target: GLP-1R (Homo sapiens, UniProt P43220, D198A/K202A/Y145A); assay: as above; type: cell-based; design: Flag; expressed in transfected cells; host or cells: HEK293T; details: GLP-1R Y145A/D198A/K202A, HEK293T
Procedure, shortened: as §2

GLP-1R [9] = biological target: GLP-1R (Homo sapiens, UniProt P43220, Q210A); assay: as above; type: cell-based; design: Flag; expressed in transfected cells; host or cells: HEK293T; details: GLP-1R Q210A, HEK293T
Procedure, shortened: as §2

[10] = read-out: binding pIC50 (converted)
[11] = read-out: cAMP pEC50 (converted)

Sequence of GCGR (Homo sapiens, UniProt P47871, W215A) (P47871 26-477 W215A): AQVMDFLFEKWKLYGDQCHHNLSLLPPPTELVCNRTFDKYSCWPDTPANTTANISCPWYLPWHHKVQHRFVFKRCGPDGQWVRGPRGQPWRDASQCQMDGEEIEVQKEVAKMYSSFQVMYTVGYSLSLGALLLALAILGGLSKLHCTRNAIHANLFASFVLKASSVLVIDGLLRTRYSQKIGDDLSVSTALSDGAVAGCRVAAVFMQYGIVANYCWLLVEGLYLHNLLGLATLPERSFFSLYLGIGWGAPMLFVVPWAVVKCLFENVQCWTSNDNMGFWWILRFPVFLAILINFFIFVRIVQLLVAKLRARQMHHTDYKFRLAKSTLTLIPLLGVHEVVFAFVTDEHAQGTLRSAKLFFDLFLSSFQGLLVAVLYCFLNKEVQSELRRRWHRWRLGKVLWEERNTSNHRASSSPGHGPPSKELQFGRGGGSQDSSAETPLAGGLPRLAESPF
Sequence of GLP-1R (Homo sapiens, UniProt P43220, K202A) (P43220 24-463 K202A): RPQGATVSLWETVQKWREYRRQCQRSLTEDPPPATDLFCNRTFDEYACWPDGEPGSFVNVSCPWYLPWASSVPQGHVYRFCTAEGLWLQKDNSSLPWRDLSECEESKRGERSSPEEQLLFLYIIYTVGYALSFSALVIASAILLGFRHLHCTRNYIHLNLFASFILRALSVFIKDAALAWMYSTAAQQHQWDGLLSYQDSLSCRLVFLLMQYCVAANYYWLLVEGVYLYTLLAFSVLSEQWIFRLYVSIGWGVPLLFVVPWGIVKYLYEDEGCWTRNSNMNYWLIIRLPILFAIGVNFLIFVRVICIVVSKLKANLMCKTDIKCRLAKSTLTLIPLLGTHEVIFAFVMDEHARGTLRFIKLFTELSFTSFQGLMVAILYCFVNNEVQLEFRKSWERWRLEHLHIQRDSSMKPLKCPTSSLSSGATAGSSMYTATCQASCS
Sequence of GCGR (Homo sapiens, UniProt P47871, Q131A) (P47871 26-477 Q131A): as the sequence (P47871 26-477 W215A) above, with Q106A, A190W counted along it
Sequence of GLP-1R (Homo sapiens, UniProt P43220, Q210A) (P43220 24-463 Q210A): as the sequence (P43220 24-463 K202A) above, with A179K, Q187A counted along it
Sequence of GCGR (Homo sapiens, UniProt P47871, W87A) (P47871 26-477 W87A): as the sequence (P47871 26-477 W215A) above, with W62A, A190W counted along it
Sequence of GCGR (Homo sapiens, UniProt P47871, K205A) (P47871 26-477 K205A): as the sequence (P47871 26-477 W215A) above, with K180A, A190W counted along it
Sequence of GCGR (Homo sapiens, UniProt P47871, Q293A) (P47871 26-477 Q293A): as the sequence (P47871 26-477 W215A) above, with A190W, Q268A counted along it
Sequence of GLP-1R (Homo sapiens, UniProt P43220, D198A/K202A/Y145A) (P43220 24-463 Y145A/D198A/K202A): as the sequence (P43220 24-463 K202A) above, with Y122A, D175A counted along it
Sequence of GLP-1R (Homo sapiens, UniProt P43220, Y205A) (P43220 24-463 Y205A): as the sequence (P43220 24-463 K202A) above, with A179K, Y182A counted along it

CCCCCCCCCCCCCCCC(=O)N[C@@H](CCC(=O)NCCCC[C@H](NC(=O)[C@H](CC(=O)O)NC(=O)[C@H](CO)NC(=O)[C@@H](NC(=O)[C@H](Cc1ccccc1)NC(=O)[C@@H](NC(=O)CNC(=O)[C@H](CCC(N)=O)NC(=O)C(C)(C)NC(=O)[C@@H](N)Cc1c[nH]cn1)[C@@H](C)O)[C@@H](C)O)C(=O)N[C@@H](CO)C(=O)N[C@@H](CCCCN)C(=O)N[C@@H](Cc1ccc(O)cc1)C(=O)N[C@@H](CC(C)C)C(=O)N[C@@H](CC(=O)O)C(=O)N[C@@H](CCC(=O)O)C(=O)N[C@@H](CCCNC(=N)N)C(=O)N[C@@H](C)C(=O)N[C@@H](C)C(=O)N[C@@H](CCC(N)=O)C(=O)N[C@@H](CC(=O)O)C(=O)N[C@@H](Cc1ccccc1)C(=O)N[C@H](C(=O)N[C@@H](CCC(N)=O)C(=O)N[C@@H](Cc1c[nH]c2ccccc12)C(=O)N[C@@H](CC(C)C)C(=O)N[C@@H](CC(C)C)C(=O)N[C@@H](CC(=O)O)C(=O)NCC(=O)NCC(=O)N1CCC[C@H]1C(=O)N[C@@H](CO)C(=O)N[C@@H](CO)C(=O)NCC(=O)N[C@@H](C)C(=O)N1CCC[C@H]1C(=O)N1CCC[C@H]1C(=O)N1CCC[C@H]1C(=O)N[C@@H](CO)C(N)=O)C(C)C)C(=O)O [Peptide 20]
binding Span (GCGR [1]): 32.87 ± 3.34 % WT
IC50 (GCGR [1]; [10]): 69.2 nM
binding Span (GCGR [2]): 135.17 ± 6.41 % WT
IC50 (GCGR [2]; [10]): 132 nM
binding Span (GCGR [3]): 4.68 ± 2.95 % WT
IC50 (GCGR [3]; [10]): 1.51 nM
binding Span (GCGR [4]): 7.72 ± 2.74 % WT
IC50 (GCGR [4]; [10]): 145 nM
binding Span (GCGR [5]): 130.88 ± 9.06 % WT
IC50 (GCGR [5]; [10]): 182 nM
EC50 (GLP-1R [6]; [11]): 0.00851 nM
Emax (GLP-1R [6]; HEK-293T): 101 ± 1.08%
EC50 (GLP-1R [7]; [11]): 0.00257 nM
Emax (GLP-1R [7]; HEK-293T): 100 ± 1.97%
EC50 (GLP-1R [8]; [11]): 0.0389 nM
Emax (GLP-1R [8]; HEK-293T): 99.9 ± 1.67%
EC50 (GLP-1R [9]; [11]): 0.00562 nM
Emax (GLP-1R [9]; HEK-293T): 102 ± 1.27%

— PMC8881610 (Nature Communications, 2022)
